According to ChEMBL document CHEMBL3885881, “DrugMatrix”:

Organism: Rattus norvegicus
Test: DrugMatrix - Regimen: Daily Repeat
Type: toxicity, organism-based, Sprague-Dawley
Parameters: regimen Daily Repeat, gender Male, age 6-8 weeks
Conditions: in vivo, sc, 54 mg/kg, route subcutaneous, dose level Low, […]
[1] = 72 h, tissue Plasma, time 3 day
[2] = 120 h, tissue Blood, time 5 day
[3] = 120 h, tissue Plasma, time 5 day

**Q.** For NYSTATIN, which “ABSOLUTE BASOPHIL” value (72 h, tissue Blood, time 3 day) is on record?
**A.** Its value is 0 CELLS/uL.

**Q.** And the “ABSOLUTE EOSINOPHIL” value (72 h, tissue Blood, time 3 day)?
**A.** The value was 50 CELLS/uL.

**Q.** And the “ABSOLUTE LYMPHOCYTE” value (72 h, tissue Blood, time 3 day)?
**A.** The value was 13843 CELLS/uL.

**Q.** And the “ABSOLUTE MONOCYTE” value (72 h, tissue Blood, time 3 day)?
**A.** The value was 920.67 CELLS/uL.

**Q.** And the “ABSOLUTE SEGMENTED NEUTROPHIL” value (72 h, tissue Blood, time 3 day)?
**A.** Its value is 2486.33 CELLS/uL.

**Q.** What about the BASOPHIL (72 h, tissue Blood, time 3 day) of the same sequence?
**A.** The BASOPHIL was 0%.

**Q.** And the EOSINOPHIL (72 h, tissue Blood, time 3 day)?
**A.** The EOSINOPHIL was 0.33%.

**Q.** What about the “ERYTHROCYTE COUNT” value (72 h, tissue Blood, time 3 day) of the same sequence?
**A.** Its value is 5.95 x10E6/uL.

**Q.** What about the HEMATOCRIT (72 h, tissue Blood, time 3 day) of the same sequence?
**A.** The HEMATOCRIT was 34.97%.

**Q.** What about the HEMOGLOBIN (72 h, tissue Blood, time 3 day) of the same sequence?
**A.** The HEMOGLOBIN was 13.07 G/DL.

**Q.** What about the “LEUKOCYTE COUNT” value (72 h, tissue Blood, time 3 day) of the same sequence?
**A.** Its value is 17.3 x10E3/uL.

**Q.** What about the LYMPHOCYTE (72 h, tissue Blood, time 3 day) of the same sequence?
**A.** The LYMPHOCYTE was 80.33%.

**Q.** And the “MEAN CORPUSCULAR HEMOGLOBIN” value (72 h, tissue Blood, time 3 day)?
**A.** Its value is 21.93 pg.

**Q.** And the “MEAN CORPUSCULAR HEMOGLOBIN CONCENTRATION” value (72 h, tissue Blood, time 3 day)?
**A.** The value was 37.37 G/DL.

**Q.** What about the “MEAN CORPUSCULAR VOLUME” value (72 h, tissue Blood, time 3 day) of the same sequence?
**A.** The value was 58.73 fL.

**Q.** What about the MONOCYTE (72 h, tissue Blood, time 3 day) of the same sequence?
**A.** The MONOCYTE was 5.33%.

**Q.** What about the NEUTROPHIL (72 h, tissue Blood, time 3 day) of the same sequence?
**A.** Its NEUTROPHIL is 14%.

**Q.** What about the “NUCLEATED RED BLOOD CELLS” value (72 h, tissue Blood, time 3 day) of the same sequence?
**A.** The value was 0 /100WBC.

**Q.** And the “PLATELET COUNT” value (72 h, tissue Blood, time 3 day)?
**A.** Its value is 1209 x10E3/uL.

**Q.** And the “ALANINE AMINOTRANSFERASE” value [1]?
**A.** Its value is 35 u/L.

**Q.** What about the ALBUMIN [1] of the same sequence?
**A.** The ALBUMIN was 2.97 G/DL.

**Q.** What about the “ALKALINE PHOSPHATASE” value [1] of the same sequence?
**A.** Its value is 281 u/L.

**Q.** What about the “ASPARTATE AMINOTRANSFERASE” value [1] of the same sequence?
**A.** The value was 75.67 u/L.

**Q.** And the “BLOOD UREA NITROGEN” value [1]?
**A.** Its value is 18.67 mg/dL.

**Q.** What about the “CARBON DIOXIDE” value [1] of the same sequence?
**A.** The value was 21.33 mmol/L.

**Q.** What about the CHOLESTEROL [1] of the same sequence?
**A.** Its CHOLESTEROL is 62.33 mg/dL.

**Q.** And the “CREATINE PHOSPHOKINASE” value [1]?
**A.** The value was 212.67 u/L.

**Q.** What about the CREATININE [1] of the same sequence?
**A.** The CREATININE was 0.18 mg/dL.

**Q.** And the “LACTATE DEHYDROGENASE” value [1]?
**A.** The value was 276.67 u/L.

**Q.** And the LIPASE [1]?
**A.** Its LIPASE is 6.67 u/L.

**Q.** And the PHOSPHORUS [1]?
**A.** Its PHOSPHORUS is 11.77 mg/dL.

**Q.** What about the POTASSIUM [1] of the same sequence?
**A.** Its POTASSIUM is 6.36 MEQ/L.

**Q.** What about the SODIUM [1] of the same sequence?
**A.** The SODIUM was 149.8 MEQ/L.

**Q.** And the “TOTAL BILIRUBIN” value [1]?
**A.** Its value is 0.13 mg/dL.

**Q.** And the “URIC ACID” value [1]?
**A.** Its value is 2 mg/dL.

**Q.** What about the “ABSOLUTE BASOPHIL” value [2] of the same sequence?
**A.** The value was 0 CELLS/uL.

**Q.** What about the “ABSOLUTE EOSINOPHIL” value [2] of the same sequence?
**A.** The value was 278 CELLS/uL.

**Q.** What about the “ABSOLUTE LYMPHOCYTE” value [2] of the same sequence?
**A.** Its value is 19000 CELLS/uL.

**Q.** And the “ABSOLUTE MONOCYTE” value [2]?
**A.** The value was 554 CELLS/uL.

**Q.** What about the “ABSOLUTE SEGMENTED NEUTROPHIL” value [2] of the same sequence?
**A.** The value was 5634.67 CELLS/uL.

**Q.** What about the BASOPHIL [2] of the same sequence?
**A.** The BASOPHIL was 0%.

**Q.** What about the EOSINOPHIL [2] of the same sequence?
**A.** The EOSINOPHIL was 1%.

**Q.** And the “ERYTHROCYTE COUNT” value [2]?
**A.** The value was 5.2 x10E6/uL.

**Q.** And the HEMATOCRIT [2]?
**A.** The HEMATOCRIT was 32.27%.

**Q.** What about the HEMOGLOBIN [2] of the same sequence?
**A.** The HEMOGLOBIN was 12.13 G/DL.

**Q.** What about the “LEUKOCYTE COUNT” value [2] of the same sequence?
**A.** Its value is 25.47 x10E3/uL.

**Q.** What about the LYMPHOCYTE [2] of the same sequence?
**A.** Its LYMPHOCYTE is 76.67%.

**Q.** And the “MEAN CORPUSCULAR HEMOGLOBIN” value [2]?
**A.** The value was 23.37 pg.

**Q.** What about the “MEAN CORPUSCULAR HEMOGLOBIN CONCENTRATION” value [2] of the same sequence?
**A.** Its value is 37.63 G/DL.

**Q.** What about the MONOCYTE [2] of the same sequence?
**A.** The MONOCYTE was 2%.

**Q.** And the NEUTROPHIL [2]?
**A.** Its NEUTROPHIL is 20.33%.

**Q.** And the “NUCLEATED RED BLOOD CELLS” value [2]?
**A.** The value was 0 /100WBC.

**Q.** What about the “PLATELET COUNT” value [2] of the same sequence?
**A.** Its value is 1747 x10E3/uL.

**Q.** And the “ALANINE AMINOTRANSFERASE” value [3]?
**A.** Its value is 31.33 u/L.

**Q.** What about the ALBUMIN [3] of the same sequence?
**A.** The ALBUMIN was 2.63 G/DL.

**Q.** And the “ALKALINE PHOSPHATASE” value [3]?
**A.** The value was 261.33 u/L.

**Q.** What about the “ASPARTATE AMINOTRANSFERASE” value [3] of the same sequence?
**A.** The value was 76 u/L.

**Q.** And the “BLOOD UREA NITROGEN” value [3]?
**A.** The value was 22.33 mg/dL.

**Q.** What about the “CARBON DIOXIDE” value [3] of the same sequence?
**A.** The value was 24.67 mmol/L.

**Q.** And the CHLORIDE [3]?
**A.** The CHLORIDE was 107.33 MEQ/L.

**Q.** What about the CHOLESTEROL [3] of the same sequence?
**A.** Its CHOLESTEROL is 48.67 mg/dL.

**Q.** What about the “CREATINE PHOSPHOKINASE” value [3] of the same sequence?
**A.** Its value is 286 u/L.

**Q.** What about the CREATININE [3] of the same sequence?
**A.** Its CREATININE is 0.17 mg/dL.

**Q.** And the GLUCOSE [3]?
**A.** Its GLUCOSE is 135 mg/dL.

**Q.** What about the “LACTATE DEHYDROGENASE” value [3] of the same sequence?
**A.** Its value is 423.33 u/L.

**Q.** And the LIPASE [3]?
**A.** Its LIPASE is 7 u/L.

**Q.** What about the POTASSIUM [3] of the same sequence?
**A.** The POTASSIUM was 6.66 MEQ/L.

**Q.** And the SODIUM [3]?
**A.** Its SODIUM is 147.07 MEQ/L.

**Q.** And the “TOTAL BILIRUBIN” value [3]?
**A.** Its value is 0.1 mg/dL.

**Q.** And the “TOTAL PROTEIN” value [3]?
**A.** Its value is 5.43 G/DL.

**Q.** And the “URIC ACID” value [3]?
**A.** Its value is 1.73 mg/dL.
